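Interpolation was linear, between the two tested concentrations surrounding the appropriate level; five concentrations were tested over 48 hours in 96-well plates. GI50: concentration for 50% inhibition of growth.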 Activity calls are given as the source filed them. Cut-off read from the data, not from the text of the source: active = GI50 up to about 1.1 µM and inactive = higher.
How the values were obtained:
Experiment in all cases: NCI anticancer screen, dose series, 48 h
HCC 2998 = test system: HCC 2998
HCT-15 = test system: HCT-15
UACC-62 = test system: UACC-62
COLO 205 = test system: COLO 205
HOP-92 = test system: HOP-92
SK-MEL-28 = test system: SK-MEL-28
A498 = test system: A498
HOP-62 = test system: HOP-62
RPMI-8226 = test system: RPMI-8226
SW-620 = test system: SW-620
TK-10 = test system: TK-10
SN12C = test system: SN12C
KM12 = test system: KM12
MDA-MB-435 = test system: MDA-MB-435
DU-145 = test system: DU-145
K562 = test system: K562
MDA-MB-231 = test system: MDA-MB-231
M14 = test system: M14
IGROV-1 = test system: IGROV-1
U-251 = test system: U-251
SK-OV-3 = test system: SK-OV-3
HL-60 = test system: HL-60
SK-MEL-5 = test system: SK-MEL-5
CCRF-CEM = test system: CCRF-CEM
OVCAR-8 = test system: OVCAR-8
SF-539 = test system: SF-539
UACC-257 = test system: UACC-257
ACHN = test system: ACHN
T47D = test system: T47D
RXF 393 = test system: RXF 393
786-0 = test system: 786-0
SNB-75 = test system: SNB-75
SNB-19 = test system: SNB-19
NCI-H226 = test system: NCI-H226
UO-31 = test system: UO-31
MCF7 = test system: MCF7
HCT-116 = test system: HCT-116
SR = test system: SR
EKVX = test system: EKVX
MOLT-4 = test system: MOLT-4
NCI-H460 = test system: NCI-H460
OVCAR-5 = test system: OVCAR-5
SF-268 = test system: SF-268
SF-295 = test system: SF-295
Hs-578T = test system: Hs-578T
OVCAR-4 = test system: OVCAR-4
HT-29 = test system: HT-29
NCI/ADR-RES = test system: NCI/ADR-RES
Malme-3M = test system: Malme-3M
A549 = test system: A549
NCI-H23 = test system: NCI-H23
LOX IMVI = test system: LOX IMVI
SK-MEL-2 = test system: SK-MEL-2
OVCAR-3 = test system: OVCAR-3
CAKI-1 = test system: CAKI-1
PC-3 = test system: PC-3
NCI-H522 = test system: NCI-H522
MDA-N = test system: MDA-N

Measured: GI50

O=C(CCC(=O)CC(O)(C(F)(F)F)C(F)(F)F)CC(O)(C(F)(F)F)C(F)(F)F
active: A498 0.151 µM
inactive: HCC 2998 58.1 µM | UACC-62 31.7 µM | COLO 205 29.2 µM | HOP-92 20.7 µM | SK-MEL-28 > 100 µM | HOP-62 52.5 µM | RPMI-8226 26.7 µM | SW-620 63.5 µM | TK-10 56.9 µM | SN12C 42.6 µM | KM12 26.4 µM | MDA-MB-435 47.9 µM | DU-145 53.1 µM | K562 33.4 µM | MDA-MB-231 29.4 µM | M14 41.2 µM | IGROV-1 29.7 µM | U-251 65 µM | SK-OV-3 > 100 µM | HL-60 33.7 µM | SK-MEL-5 55.7 µM | CCRF-CEM 42.1 µM | OVCAR-8 42.4 µM | SF-539 67.6 µM | UACC-257 34.4 µM | ACHN 33.7 µM | T47D 29.2 µM | RXF 393 > 100 µM | 786-0 46.1 µM | SNB-75 82.8 µM | SNB-19 24 µM | NCI-H226 18.8 µM | UO-31 23.5 µM | MCF7 37.8 µM | HCT-116 46.9 µM | SR 47.9 µM | EKVX 35 µM | MOLT-4 41.3 µM | NCI-H460 > 10 µM | OVCAR-5 > 100 µM | SF-268 71.6 µM | SF-295 32.1 µM | Hs-578T 29.4 µM | OVCAR-4 33 µM | HT-29 29.7 µM | NCI/ADR-RES 61.7 µM | Malme-3M 42.1 µM | A549 46.8 µM | NCI-H23 30.8 µM
35 µM: HCT-15

OCC(O)C1OC2CC1Nc1ccccc1N2 (configuration not stated)
> 100 µM: HCT-15
inactive: HCC 2998 > 100 µM | UACC-62 > 100 µM | LOX IMVI > 100 µM | COLO 205 > 100 µM | HOP-92 > 100 µM | SK-MEL-28 > 100 µM | A498 8.85 µM | HOP-62 > 100 µM | RPMI-8226 > 100 µM | SW-620 > 100 µM | TK-10 > 100 µM | SN12C > 100 µM | KM12 > 100 µM | MDA-MB-435 > 100 µM | DU-145 > 100 µM | K562 > 100 µM | MDA-MB-231 > 100 µM | IGROV-1 > 100 µM | U-251 > 100 µM | SK-OV-3 > 100 µM | SK-MEL-2 > 100 µM | HL-60 > 100 µM | SK-MEL-5 > 100 µM | CCRF-CEM 78.2 µM | OVCAR-8 > 100 µM | OVCAR-3 > 100 µM | SF-539 > 88.7 µM | UACC-257 > 100 µM | CAKI-1 > 100 µM | ACHN > 100 µM | T47D > 100 µM | 786-0 > 100 µM | SNB-75 > 100 µM | SNB-19 > 100 µM | NCI-H226 > 100 µM | UO-31 > 100 µM | HCT-116 > 100 µM | SR > 10 µM | EKVX > 100 µM | MOLT-4 > 100 µM | NCI-H460 > 100 µM | OVCAR-5 > 10 µM | SF-268 > 100 µM | SF-295 > 100 µM | Hs-578T > 100 µM | PC-3 > 100 µM | HT-29 > 100 µM | NCI/ADR-RES > 100 µM | Malme-3M > 100 µM | A549 > 100 µM | NCI-H522 > 100 µM | NCI-H23 > 100 µM

COc1ccc(C(=O)/C=C/c2ccc(OCC(=N)N)cc2)cc1OC
inactive: HCC 2998 6.4 µM | UACC-62 > 10 µM | LOX IMVI 2.52 µM | COLO 205 3.34 µM | SK-MEL-28 8.73 µM | HOP-62 5.75 µM | RPMI-8226 2.34 µM | SW-620 3.84 µM | TK-10 > 10 µM | SN12C > 10 µM | KM12 2.64 µM | DU-145 > 10 µM | K562 2.37 µM | MDA-MB-231 > 10 µM | M14 5.87 µM | MDA-N 3.6 µM | IGROV-1 > 10 µM | SK-OV-3 4.01 µM | HL-60 1.95 µM | SK-MEL-5 7.93 µM | CCRF-CEM 2.61 µM | OVCAR-8 3.62 µM | UACC-257 6.79 µM | CAKI-1 5.05 µM | T47D 3.86 µM | RXF 393 4.63 µM | 786-0 5.04 µM | SNB-75 4.53 µM | MCF7 3.24 µM | SR 1.64 µM | EKVX 7.36 µM | SF-268 3.61 µM | SF-295 > 10 µM | PC-3 3.84 µM | HT-29 3.1 µM | Malme-3M > 10 µM | A549 5.97 µM | NCI-H23 3.33 µM
> 10 µM: HCT-15

CC(C)C1=CC23CCC4C(C)(C(=O)O)CCCC4(C)C2CC1C1C(=O)N(c2cccc(N4C(=O)C5C6CC7C8(C)CCCC(C)(C(=O)O)C8CCC7(C=C6C(C)C)C5C4=O)c2)C(=O)C13 (configuration not stated)
11.4 µM: HCT-15
inactive: HCC 2998 6.81 µM | UACC-62 16.5 µM | COLO 205 10.6 µM | HOP-92 23.4 µM | SK-MEL-28 9.35 µM | A498 13.4 µM | HOP-62 12 µM | RPMI-8226 9.35 µM | SW-620 16.3 µM | TK-10 15.9 µM | SN12C 13.3 µM | KM12 2.75 µM | MDA-MB-435 4.02 µM | DU-145 10.8 µM | K562 7.87 µM | MDA-MB-231 14.8 µM | M14 11.6 µM | U-251 3.24 µM | SK-MEL-2 15.7 µM | HL-60 9.79 µM | SK-MEL-5 15.3 µM | CCRF-CEM 6.31 µM | OVCAR-8 8.61 µM | OVCAR-3 13.1 µM | SF-539 9.08 µM | ACHN 13.4 µM | T47D 16.8 µM | RXF 393 12.6 µM | 786-0 32 µM | SNB-19 3.02 µM | NCI-H226 16.6 µM | UO-31 14.8 µM | MCF7 4.38 µM | HCT-116 9.57 µM | SR 9.55 µM | EKVX 6.46 µM | MOLT-4 11.1 µM | OVCAR-5 7.74 µM | SF-268 12 µM | Hs-578T 3.77 µM | OVCAR-4 24 µM | PC-3 4.66 µM | HT-29 3.84 µM | Malme-3M 17 µM | A549 14.7 µM | NCI-H522 14.2 µM | NCI-H23 3.4 µM

C/C(=N\NC(=O)c1ccncc1)c1ccccc1F
> 10 µM: HCT-15
inactive: HCC 2998 > 10 µM | LOX IMVI > 10 µM | COLO 205 > 10 µM | HOP-92 2.37 µM | SK-MEL-28 > 10 µM | A498 > 10 µM | HOP-62 > 10 µM | RPMI-8226 > 10 µM | SW-620 > 10 µM | TK-10 > 10 µM | SN12C > 10 µM | KM12 > 10 µM | K562 > 10 µM | M14 > 10 µM | MDA-N > 10 µM | IGROV-1 > 10 µM | U-251 > 10 µM | SK-OV-3 > 10 µM | SK-MEL-2 > 10 µM | HL-60 > 10 µM | SK-MEL-5 > 10 µM | CCRF-CEM > 10 µM | OVCAR-8 > 10 µM | OVCAR-3 > 10 µM | SF-539 > 10 µM | CAKI-1 > 10 µM | ACHN > 10 µM | T47D > 10 µM | RXF 393 > 10 µM | 786-0 > 10 µM | SNB-75 > 10 µM | SNB-19 > 10 µM | NCI-H226 > 10 µM | UO-31 > 10 µM | MCF7 > 10 µM | HCT-116 > 10 µM | SR > 10 µM | MOLT-4 > 10 µM | NCI-H460 > 10 µM | OVCAR-5 > 10 µM | SF-268 > 10 µM | SF-295 > 10 µM | PC-3 > 10 µM | NCI/ADR-RES > 10 µM | Malme-3M > 10 µM | A549 > 10 µM | NCI-H23 > 10 µM

OC(c1cc(-c2ccc(C(F)(F)F)cc2)nc(C(F)(F)F)c1)C1CCCCN1 (configuration not stated) [ENPIROLINE PHOSPHATE]
inactive: HCC 2998 1.69 µM | UACC-62 1.78 µM | LOX IMVI 1.73 µM | COLO 205 1.82 µM | A498 2.24 µM | RPMI-8226 2.61 µM | SW-620 1.85 µM | KM12 1.87 µM | MDA-MB-435 1.86 µM | M14 1.55 µM | MDA-N 1.67 µM | IGROV-1 1.73 µM | U-251 1.88 µM | SK-OV-3 2.3 µM | SK-MEL-2 2.02 µM | HL-60 2.01 µM | CCRF-CEM 1.87 µM | UACC-257 2.03 µM | CAKI-1 5.53 µM | RXF 393 1.78 µM | 786-0 1.89 µM | MCF7 1.8 µM | HCT-116 2 µM | SR 2.33 µM | MOLT-4 1.86 µM | NCI-H460 2.08 µM | OVCAR-4 1.87 µM | PC-3 2.49 µM | HT-29 1.95 µM | NCI/ADR-RES 2.62 µM | Malme-3M 1.78 µM | NCI-H522 1.69 µM
2.18 µM: HCT-15

Reference: ChEMBL document CHEMBL1201862, “PubChem BioAssay data set” (2004)
